Test results: patent US7635572B2, “Methods for conducting assays for enzyme activity on protein microarrays” (Life Technologies Corporation, priority 2004, dated 2009)
One block for each compound: values may come before it.

How the values were obtained:
[1] = target: plurality of kinases (Table 5) (Homo sapiens, UniProt Q13557); assay: Further analysis of a plurality of inhibitors and a plurality of kinases on microarray (Example IX, Table 5); format: biochemical; settings: plate B1; inhibitor 100 uM;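 further: inhibition of each kinase by the inhibitors is given as a qualitative level; level 0 none or unclear then 1 little or marginal then 2 substantial inhibition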
EPHB3 = EPHB3 (Homo sapiens, UniProt P54753); assay: Dose-response analysis on 10-well kinase microarray (Example III, FIG. 4); format: biochemical; settings: different inhibitor concentration in each well; substrate MBP, histone, casein
Protocol: (§1) Microarrays were prepared with 10 wells/slide, wherein the kinases EPHB3, FYN, and PRKCD and their substrate were immobilized in each well. The slide was coated with substrate essentially as described in section 6.1. Subsequently, a gasket with 10 openings was applied to the surface of the slide thereby creating 10 wells, i.e., the gasket provides the barriers between the wells. The accession numbers for the different kinases in the NCBI database are: for FYN: NM_002037; for PRKCD: NM_006254; and for EPHB3: NM_004443.

PRKCD = PRKCD (Homo sapiens, UniProt Q05655); assay: as above; format: biochemical; settings: different inhibitor concentration in each well; substrate MBP, histone, casein
Protocol: as §1, with “wells.” for “wells. The accession numbers for the different kinases in the NCBI database are: for FYN: NM_002037; for PRKCD: NM_006254; and for EPHB3: NM_004443.”

39 kinases (Table 4) = assay: Global specificity profiling, single point inhibition on kinase microarrays (Example VII); format: biochemical; settings: substrates histone, casein, MBP, polyEY, control 2% DMSO
Protocol: (§2) To assess the application of microarray assays for compound profiling, seven known inhibitors (see Table of inhibitors used in global specificity profiling experiment) and one control (2% DMSO) were tested on microarrays printed with a group of kinases (as well as positive and negative controls). […] Twelve spots of each kinase or control were printed on each array, and three arrays were used for each inhibitor. A mixture of generic kinase substrates (histone, casein, MBP, and polyEY) was used in the assay. The average of all signals from the same inhibitor or control experiment was calculated.
(§3) To expedite data analysis regarding the kinase families that are inhibited by a particular […], a graphical representation can be constructed of inhibition data for substrates in such a manner that phylogenetically related kinases can be spatially arranged on the graphical representation.

[2] = test system: 50 different human kinases; assay: Inhibitor specificity profiling on kinase microarray (Example II, FIG. 3); settings: 100 μm inhibitor; substrate mixture of MBP, histone and casein; versus control without inhibitor
Protocol: 1 mL of kinase assay buffer for every 12 glass slides to be probed is prepared. 6 μL of gamma-AT^33P (10 μCi/μL) are added to the assay buffer. The slides are placed in 50 mL conical tubes, laying flat, proteins facing up. 70 μL to 150 μL of the kinase assay buffer with gamma-AT^33P are added onto each slide. Using tweezers, the slide is covered with a hybridization slip, making sure that the solution completely covers the microarray. The conical tube is then closed and placed in a 30° C. incubator. Care should be taken that the slide is laying flat. The reaction is then incubated for 90 minutes. Subsequently, the tubes are removed from the incubator. Approximately 40 mL of dH2O are added to each tube and, using the tweezers, the hybridization slip is removed, the tube is closed and inverted several times for 1-2 minutes to rinse the slide inside the conical tube. The wash solution is then discarded. Approximately 40 mL of dH2O are added again to each tube, the tubes are closed and inverted several times for 1-2 minutes, the wash solution is discarded. The slides are then removed from the tubes and place in a slide box and centrifuged at 4000 rpm for 1-2 minutes.
A phosphor screen (suitable for ^33P) is re-activated for each membrane by exposing it to light for at least 30 minutes. […]

FYN [3] = target: T1, FYN (Homo sapiens, UniProt P06241); assay: Dose-response analysis on 10-well kinase microarray (Example III, FIG. 4); format: biochemical; settings: different inhibitor concentration in each well; substrate MBP, histone, casein
Protocol: as §1, with “wells.” for “wells. The accession numbers for the different kinases in the NCBI database are: for FYN: NM_002037; for PRKCD: NM_006254; and for EPHB3: NM_004443.”

FYN [4] = target: T1, FYN; assay: Global specificity profiling, single point inhibition on kinase microarrays (Example VII); format: biochemical; settings: substrates histone, casein, MBP, polyEY
Protocol: as §2, §3

T1 sequence (P06241 whole entry): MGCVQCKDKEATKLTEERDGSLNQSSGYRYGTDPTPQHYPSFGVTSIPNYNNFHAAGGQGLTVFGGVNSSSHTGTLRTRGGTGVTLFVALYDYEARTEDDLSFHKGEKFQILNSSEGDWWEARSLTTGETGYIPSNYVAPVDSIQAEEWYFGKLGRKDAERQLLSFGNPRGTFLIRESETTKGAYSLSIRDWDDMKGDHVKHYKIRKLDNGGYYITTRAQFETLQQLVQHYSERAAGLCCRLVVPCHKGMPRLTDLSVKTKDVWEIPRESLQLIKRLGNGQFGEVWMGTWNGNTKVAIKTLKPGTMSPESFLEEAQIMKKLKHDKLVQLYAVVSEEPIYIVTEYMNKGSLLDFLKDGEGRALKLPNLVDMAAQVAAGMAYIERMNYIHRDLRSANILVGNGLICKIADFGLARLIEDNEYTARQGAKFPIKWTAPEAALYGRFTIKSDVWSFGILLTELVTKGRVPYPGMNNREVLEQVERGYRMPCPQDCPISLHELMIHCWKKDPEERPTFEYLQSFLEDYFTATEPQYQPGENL
Sequence of plurality of kinases (Table 5) (Q13557 whole entry): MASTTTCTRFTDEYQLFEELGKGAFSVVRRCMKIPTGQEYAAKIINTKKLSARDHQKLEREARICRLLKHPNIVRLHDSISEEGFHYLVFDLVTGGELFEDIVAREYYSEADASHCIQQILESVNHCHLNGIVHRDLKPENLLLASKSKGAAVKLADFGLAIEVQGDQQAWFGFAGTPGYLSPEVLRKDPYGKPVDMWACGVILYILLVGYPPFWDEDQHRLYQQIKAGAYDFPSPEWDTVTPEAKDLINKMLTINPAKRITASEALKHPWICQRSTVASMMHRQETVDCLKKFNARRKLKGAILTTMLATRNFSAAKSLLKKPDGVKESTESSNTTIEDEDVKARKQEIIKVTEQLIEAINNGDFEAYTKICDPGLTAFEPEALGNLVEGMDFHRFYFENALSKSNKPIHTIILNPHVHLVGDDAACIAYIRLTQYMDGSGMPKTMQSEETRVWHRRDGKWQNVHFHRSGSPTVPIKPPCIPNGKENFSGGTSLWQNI
Sequence of PRKCD (Q05655 whole entry): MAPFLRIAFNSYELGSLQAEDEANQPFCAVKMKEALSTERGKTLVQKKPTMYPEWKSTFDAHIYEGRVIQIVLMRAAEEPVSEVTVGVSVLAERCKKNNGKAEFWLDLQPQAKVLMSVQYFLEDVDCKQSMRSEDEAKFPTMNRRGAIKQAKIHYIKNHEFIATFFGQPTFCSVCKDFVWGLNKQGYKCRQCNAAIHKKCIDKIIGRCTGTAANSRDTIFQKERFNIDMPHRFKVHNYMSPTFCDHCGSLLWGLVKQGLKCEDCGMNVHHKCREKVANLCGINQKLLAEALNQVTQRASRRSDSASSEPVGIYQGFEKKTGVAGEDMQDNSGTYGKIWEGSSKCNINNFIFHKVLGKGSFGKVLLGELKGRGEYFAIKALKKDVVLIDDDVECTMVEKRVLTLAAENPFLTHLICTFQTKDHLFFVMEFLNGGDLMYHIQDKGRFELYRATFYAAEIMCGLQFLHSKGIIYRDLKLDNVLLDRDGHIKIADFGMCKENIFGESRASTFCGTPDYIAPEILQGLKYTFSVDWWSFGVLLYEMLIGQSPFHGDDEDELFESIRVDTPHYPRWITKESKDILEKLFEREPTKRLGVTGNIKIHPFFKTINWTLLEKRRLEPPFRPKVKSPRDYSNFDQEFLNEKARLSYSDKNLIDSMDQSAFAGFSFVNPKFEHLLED
Sequence of EPHB3 (P54753 34-998): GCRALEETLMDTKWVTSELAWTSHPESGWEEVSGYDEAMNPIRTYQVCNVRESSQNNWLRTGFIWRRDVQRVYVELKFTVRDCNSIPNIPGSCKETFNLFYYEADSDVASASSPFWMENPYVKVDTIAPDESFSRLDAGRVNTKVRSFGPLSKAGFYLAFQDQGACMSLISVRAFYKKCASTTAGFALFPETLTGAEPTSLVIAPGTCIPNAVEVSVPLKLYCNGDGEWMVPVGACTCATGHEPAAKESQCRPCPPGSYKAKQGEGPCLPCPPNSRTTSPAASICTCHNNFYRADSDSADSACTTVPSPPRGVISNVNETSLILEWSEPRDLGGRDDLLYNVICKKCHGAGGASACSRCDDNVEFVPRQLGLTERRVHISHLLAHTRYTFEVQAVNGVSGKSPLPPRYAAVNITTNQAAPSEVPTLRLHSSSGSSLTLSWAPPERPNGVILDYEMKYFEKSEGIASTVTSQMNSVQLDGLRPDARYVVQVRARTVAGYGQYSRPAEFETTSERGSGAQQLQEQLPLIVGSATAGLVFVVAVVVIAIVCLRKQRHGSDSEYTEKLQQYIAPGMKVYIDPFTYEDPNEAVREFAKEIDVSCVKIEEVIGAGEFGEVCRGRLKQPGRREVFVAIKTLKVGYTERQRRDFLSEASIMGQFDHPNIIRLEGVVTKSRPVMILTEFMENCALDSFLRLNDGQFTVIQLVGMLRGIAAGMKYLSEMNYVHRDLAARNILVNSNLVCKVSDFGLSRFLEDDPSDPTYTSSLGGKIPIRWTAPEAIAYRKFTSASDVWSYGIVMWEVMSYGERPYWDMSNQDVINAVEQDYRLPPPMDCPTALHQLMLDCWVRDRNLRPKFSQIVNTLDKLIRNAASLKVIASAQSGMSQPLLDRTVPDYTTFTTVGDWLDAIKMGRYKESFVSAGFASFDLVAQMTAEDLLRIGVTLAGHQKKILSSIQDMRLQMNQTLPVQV

Inhibition level, CAMK2D [1]: 0
SMILES: O=S(=O)(NCCNC/C=C/c1ccc(Br)cc1)c1cccc2cnccc12 [H-89]

inhibition of EPHB3 (dose-response curve) (EPHB3): strongly inhibits
observed specificity (percentage-of-inhibition data for 39 kinases) (39 kinases (Table 4)): primarily inhibited tyrosine kinases
inhibition of tyrosine kinases [2]: strongly inhibited
SMILES: CC(C)(C)n1nc(-c2ccc(Cl)cc2)c2c(N)ncnc21 [PP2]
inhibition of PRKCD (dose-response curve) (PRKCD): but not the serine/threonine kinase PRKCD

SMILES: Cn1cc(C2=C(c3cn(CCCSC(=N)N)c4ccccc34)C(=O)NC2=O)c2ccccc21 [Ro-31-8220]
observed specificity (percentage-of-inhibition data for 39 kinases) (39 kinases (Table 4)): more specifically targeted the serine-threonine kinases

SMILES: CC(=O)c1c(O)c(C)c(O)c(Cc2c(O)c3c(c(C(=O)/C=C/c4ccccc4)c2O)OC(C)(C)C=C3)c1O [Rottlerin (Mallotoxin)]
Inhibition level, CAMK2D [1]: 2

SMILES: CN[C@@H]1C[C@H]2O[C@@](C)([C@@H]1OC)n1c3ccccc3c3c4c(c5c6ccccc6n2c5c31)C(=O)NC4 [Staurosporine]
inhibition of FYN (dose-response curve) (FYN [3]): strongly inhibits
inhibition of FYN in global specificity profiling (FYN [4]): inhibited
